Experimental findings from PMC11801377, “A uniquely efficacious type of CFTR corrector with complementary mode of action” (Science Advances, 2024) are described below.

For experiment [1], the target named is T1, L206W CFTR (Homo sapiens, UniProt P13569, L206W).
T1 construct: expressed in transfected cells; host or cells: T-REx HEK293
Nature of the experiment: CFTR correction (immunoblotting), HEK-TREx, L206W. It is filed as cell-based. The following applies: 48 hours, IDOR-3 2 μM, IDOR-4 0.4 μM, TEZ 2 μM + ELX 0.4 μM. The source says: (§1) The human CFTR expressing HEK cell pools with the mutations described below were generated by integrase-mediated homologous recombination of the CFTR sequence into the T-REx HEK293 background (Thermo Fisher Scientific). This expression system allows the tetracycline-inducible expression of genes of interest from one defined insertion site. Parental T-REx-HEK293 cells were cultivated in growth medium: Dulbecco’s modified Eagle’s medium + GlutaMAX-I (#31966, Life Technologies), 10% dialyzed FBS (Gibco, #26400), penicillin (100 U/ml), streptomycin (100 μg/ml), hygromycin B (0.1 mg/ml; Life Technologies), blasticidin (5 μg/ml; Invitrogen, #R210-01), and 0.1 mM nonessential amino acid solution (Invitrogen, #11140-035). Recombinant T-REx-HEK-CFTR cells were generated by lipofectamine transfection (Life Technologies) of plasmids containing mutated versions of CFTR (RefSeq NM_000492) and then cultivated in selection medium [growth medium containing Geneticin (1 mg/ml) (Invitrogen, #10131-027) instead of hygromycin]. The plasmid constructs were synthetized by GENEART (Thermo Fisher Scientific) and designed with the WT CFTR intron 5 to 6 (880 nucleotides) to prevent leaky expression issues during the cloning process in bacteria. […]

Experiment [2] deals with T2, F508del-CFTR-G550E.R553M.R555K.R1070W (3TS + RW) (Homo sapiens, UniProt P13569, DEL508-508/G550E/R1070W/R553M/R555K).
T2 construct: expressed in transfected cells; host or cells: T-REx HEK293
T2 sequence (P13569 with tags, fused parts or gaps DEL508-508/G550E/R553M/R555K/R1070W): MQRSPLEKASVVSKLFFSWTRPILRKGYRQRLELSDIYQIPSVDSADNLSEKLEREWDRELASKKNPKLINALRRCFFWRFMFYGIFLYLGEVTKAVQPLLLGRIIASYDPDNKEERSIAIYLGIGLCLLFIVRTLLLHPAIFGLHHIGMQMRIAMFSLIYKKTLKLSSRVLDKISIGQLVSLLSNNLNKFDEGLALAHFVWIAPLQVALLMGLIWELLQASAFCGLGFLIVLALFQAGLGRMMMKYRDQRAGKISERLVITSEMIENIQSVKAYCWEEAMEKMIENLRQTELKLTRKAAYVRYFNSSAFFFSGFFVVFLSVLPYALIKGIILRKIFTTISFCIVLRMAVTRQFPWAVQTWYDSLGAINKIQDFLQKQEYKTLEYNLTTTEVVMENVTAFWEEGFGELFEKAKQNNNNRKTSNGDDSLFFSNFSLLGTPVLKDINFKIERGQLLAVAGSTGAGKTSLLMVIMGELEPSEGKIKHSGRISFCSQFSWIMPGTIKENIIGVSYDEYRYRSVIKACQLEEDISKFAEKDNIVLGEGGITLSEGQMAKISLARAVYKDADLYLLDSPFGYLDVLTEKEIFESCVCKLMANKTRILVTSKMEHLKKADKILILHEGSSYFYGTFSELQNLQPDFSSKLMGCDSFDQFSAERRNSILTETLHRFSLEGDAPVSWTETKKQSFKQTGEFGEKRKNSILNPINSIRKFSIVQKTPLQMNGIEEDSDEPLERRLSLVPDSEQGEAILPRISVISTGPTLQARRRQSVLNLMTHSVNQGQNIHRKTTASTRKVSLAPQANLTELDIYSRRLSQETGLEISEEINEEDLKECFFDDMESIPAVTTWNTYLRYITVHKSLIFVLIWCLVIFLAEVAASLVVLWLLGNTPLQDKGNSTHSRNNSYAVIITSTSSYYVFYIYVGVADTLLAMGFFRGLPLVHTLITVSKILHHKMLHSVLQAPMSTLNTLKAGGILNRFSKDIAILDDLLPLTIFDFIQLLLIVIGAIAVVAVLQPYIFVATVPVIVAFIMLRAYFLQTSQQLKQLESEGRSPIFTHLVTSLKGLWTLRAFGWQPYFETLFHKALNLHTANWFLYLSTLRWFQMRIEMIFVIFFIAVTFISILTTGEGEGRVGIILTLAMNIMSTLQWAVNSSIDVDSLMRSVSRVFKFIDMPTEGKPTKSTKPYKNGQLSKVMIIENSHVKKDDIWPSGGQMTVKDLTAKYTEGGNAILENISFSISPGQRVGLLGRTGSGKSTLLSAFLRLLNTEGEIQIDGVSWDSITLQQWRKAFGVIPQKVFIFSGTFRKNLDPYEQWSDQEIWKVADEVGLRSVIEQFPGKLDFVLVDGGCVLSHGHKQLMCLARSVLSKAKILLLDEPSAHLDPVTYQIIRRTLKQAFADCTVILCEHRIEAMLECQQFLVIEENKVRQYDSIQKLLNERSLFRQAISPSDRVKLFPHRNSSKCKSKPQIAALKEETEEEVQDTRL
Nature of the experiment: CFTR immunoblotting in HEK-TREx cells expressing F508del-CFTR 3TS + RW. The experiment is classed as cell-based. The conditions noted are these: 48 hours.
Description: as §1
For orientation: In western blotting, separated proteins are transferred to a membrane and probed.

Experiment [3] relates to F508del.K14A-CFTR. Nature of the experiment: Site-directed mutagenesis immunoblotting, HEK-TREx, F508del.K14A-CFTR. It is filed as cell-based, human. The following applies: 40 h, 2 μM.
Description: as §1

Experiment [4] has as its target T3, N1303K CFTR (Homo sapiens, UniProt P13569, N1303K).
T3 construct: expressed in transfected cells; host or cells: T-REx HEK293
Nature of the experiment: CFTR correction (immunoblotting), HEK-TREx, N1303K. The experiment is classed as cell-based. The following applies: 48 hours, IDOR-3 2 μM, IDOR-4 0.4 μM, TEZ 2 μM + ELX 0.4 μM.
Description: as §1

T1 sequence (P13569 whole entry L206W): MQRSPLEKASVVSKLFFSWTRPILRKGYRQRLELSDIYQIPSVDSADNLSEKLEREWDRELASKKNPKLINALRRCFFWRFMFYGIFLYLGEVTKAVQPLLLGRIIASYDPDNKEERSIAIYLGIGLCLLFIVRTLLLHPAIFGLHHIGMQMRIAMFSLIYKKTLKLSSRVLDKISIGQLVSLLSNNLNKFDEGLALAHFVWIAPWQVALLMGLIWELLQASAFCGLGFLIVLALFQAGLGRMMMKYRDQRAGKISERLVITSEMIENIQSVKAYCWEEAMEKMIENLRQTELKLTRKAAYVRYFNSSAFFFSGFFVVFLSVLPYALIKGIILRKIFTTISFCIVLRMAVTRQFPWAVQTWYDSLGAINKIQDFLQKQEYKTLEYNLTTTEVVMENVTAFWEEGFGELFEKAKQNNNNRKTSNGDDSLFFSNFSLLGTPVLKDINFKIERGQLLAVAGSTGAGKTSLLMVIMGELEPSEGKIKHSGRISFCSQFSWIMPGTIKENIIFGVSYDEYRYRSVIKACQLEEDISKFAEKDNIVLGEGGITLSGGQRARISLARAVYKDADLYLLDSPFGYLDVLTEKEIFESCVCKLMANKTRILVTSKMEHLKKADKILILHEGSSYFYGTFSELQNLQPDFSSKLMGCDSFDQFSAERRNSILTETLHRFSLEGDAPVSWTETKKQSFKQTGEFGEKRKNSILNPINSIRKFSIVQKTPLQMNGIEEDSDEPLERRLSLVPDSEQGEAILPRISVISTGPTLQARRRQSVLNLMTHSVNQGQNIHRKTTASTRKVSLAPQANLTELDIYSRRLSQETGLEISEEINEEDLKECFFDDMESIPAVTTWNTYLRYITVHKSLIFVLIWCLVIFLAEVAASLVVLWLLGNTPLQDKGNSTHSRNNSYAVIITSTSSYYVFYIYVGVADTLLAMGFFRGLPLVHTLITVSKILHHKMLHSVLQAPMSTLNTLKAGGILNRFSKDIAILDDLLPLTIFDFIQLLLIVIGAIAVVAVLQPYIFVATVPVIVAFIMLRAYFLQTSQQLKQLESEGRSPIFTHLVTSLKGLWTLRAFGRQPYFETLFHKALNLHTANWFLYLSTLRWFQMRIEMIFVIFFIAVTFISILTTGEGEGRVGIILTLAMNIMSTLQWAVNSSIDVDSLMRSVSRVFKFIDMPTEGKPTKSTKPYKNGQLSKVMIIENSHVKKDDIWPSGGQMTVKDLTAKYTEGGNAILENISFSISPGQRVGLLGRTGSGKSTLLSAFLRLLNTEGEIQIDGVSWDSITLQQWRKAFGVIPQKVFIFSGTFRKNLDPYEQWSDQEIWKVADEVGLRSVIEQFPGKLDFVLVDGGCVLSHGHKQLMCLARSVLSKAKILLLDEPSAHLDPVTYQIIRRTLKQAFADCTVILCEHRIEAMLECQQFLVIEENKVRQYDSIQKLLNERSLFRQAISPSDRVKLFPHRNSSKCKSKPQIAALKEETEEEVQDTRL
T3 sequence (P13569 whole entry N1303K): as the sequence (P13569 whole entry L206W) above, with W206L, N1303K counted along it

As for `COc1cc(CCNC(=O)C2CC(=O)N(C)C(CC(C)C)C(=O)N3CCCCC3C(=O)NC(Cc3ccccc3)COc3ccc4ncc(F)cc4c3C(=O)N2)on1` (stereo not shown) [IDOR-3], the “correction of L206W” value in experiment [1] is recorded as “highly effective”. Moreover, the “effect of introduction of the RW mutation on C-band expression” value in experiment [2] was “no additional effect”. In experiment [3], the “weaker correction by macrocycles as compared to [LUM + BAM]” value is recorded as “two- to fourfold”. Further, the “correction of N1303K” value in experiment [4] was “only minor activity”.
